Test results published in ChEMBL document CHEMBL3596148, “Meridianin derivatives as potent Dyrk1A inhibitors and neuroprotective agents” (Bioorg Med Chem Lett, 2015).

Experiments:
[1] = target: Dual specificity tyrosine-phosphorylation-regulated kinase 1A (Homo sapiens, UniProt Q13627); experiment: Inhibition of Dyrk1A (unknown origin) using Woodtide as substrate after 30 mins by P81 membrane assay in presence of [33P]-g-ATP
[2] = target: Glycogen synthase kinase-3 beta (Homo sapiens) (UniProt P49841); experiment: Inhibition of GSK3beta (unknown origin) at 0.5 uM relative to control
Sequence of Glycogen synthase kinase-3 beta (Homo sapiens) (P49841 whole entry, looked up): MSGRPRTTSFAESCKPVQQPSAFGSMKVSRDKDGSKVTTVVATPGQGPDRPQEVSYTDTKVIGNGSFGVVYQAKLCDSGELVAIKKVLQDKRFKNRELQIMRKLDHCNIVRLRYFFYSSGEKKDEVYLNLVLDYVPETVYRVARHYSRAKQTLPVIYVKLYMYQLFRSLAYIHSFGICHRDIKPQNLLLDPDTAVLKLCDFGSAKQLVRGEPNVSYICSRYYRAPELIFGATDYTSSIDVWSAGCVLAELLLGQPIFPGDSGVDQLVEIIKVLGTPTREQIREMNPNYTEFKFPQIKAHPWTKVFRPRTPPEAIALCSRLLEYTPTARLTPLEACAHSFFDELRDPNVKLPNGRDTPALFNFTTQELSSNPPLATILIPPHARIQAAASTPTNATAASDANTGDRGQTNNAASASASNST

[3] = target: RAC-beta serine/threonine-protein kinase (Homo sapiens) (UniProt P31751); experiment: Inhibition of PKBbeta (unknown origin) at 0.5 uM relative to control
Sequence of RAC-beta serine/threonine-protein kinase (Homo sapiens) (P31751 whole entry): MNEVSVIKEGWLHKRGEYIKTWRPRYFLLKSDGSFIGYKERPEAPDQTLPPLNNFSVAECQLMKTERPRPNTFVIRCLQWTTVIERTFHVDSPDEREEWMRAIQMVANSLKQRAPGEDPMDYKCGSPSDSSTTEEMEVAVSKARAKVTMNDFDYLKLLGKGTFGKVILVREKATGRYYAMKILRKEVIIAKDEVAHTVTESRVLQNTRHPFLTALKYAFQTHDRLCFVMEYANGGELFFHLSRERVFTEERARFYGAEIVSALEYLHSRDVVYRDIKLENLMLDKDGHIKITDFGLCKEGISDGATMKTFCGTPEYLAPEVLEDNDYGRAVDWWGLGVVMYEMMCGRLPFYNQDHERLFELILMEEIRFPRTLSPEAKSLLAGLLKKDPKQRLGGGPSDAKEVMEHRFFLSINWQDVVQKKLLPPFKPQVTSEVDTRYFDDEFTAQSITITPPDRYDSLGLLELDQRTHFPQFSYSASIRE

[4] = target: T1, Aurora kinase A (Homo sapiens) (UniProt O14965); experiment: Inhibition of Aurora A (unknown origin) at 0.5 uM relative to control
T1 sequence (whole entry): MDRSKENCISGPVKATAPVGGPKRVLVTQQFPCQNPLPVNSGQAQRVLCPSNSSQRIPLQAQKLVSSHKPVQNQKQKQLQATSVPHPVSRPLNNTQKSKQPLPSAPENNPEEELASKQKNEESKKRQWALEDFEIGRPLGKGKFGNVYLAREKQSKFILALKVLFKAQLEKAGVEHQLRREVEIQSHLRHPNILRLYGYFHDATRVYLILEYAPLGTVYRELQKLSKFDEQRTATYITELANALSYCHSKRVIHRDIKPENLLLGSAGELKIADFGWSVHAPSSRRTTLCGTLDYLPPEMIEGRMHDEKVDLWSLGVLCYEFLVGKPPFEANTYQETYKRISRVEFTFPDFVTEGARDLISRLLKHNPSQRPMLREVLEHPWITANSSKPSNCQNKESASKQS

[5] = target: RAC-alpha serine/threonine-protein kinase (Homo sapiens) (UniProt P31749); experiment: Inhibition of PKBalpha (unknown origin) at 0.5 uM relative to control
Sequence of RAC-alpha serine/threonine-protein kinase (Homo sapiens) (P31749 whole entry): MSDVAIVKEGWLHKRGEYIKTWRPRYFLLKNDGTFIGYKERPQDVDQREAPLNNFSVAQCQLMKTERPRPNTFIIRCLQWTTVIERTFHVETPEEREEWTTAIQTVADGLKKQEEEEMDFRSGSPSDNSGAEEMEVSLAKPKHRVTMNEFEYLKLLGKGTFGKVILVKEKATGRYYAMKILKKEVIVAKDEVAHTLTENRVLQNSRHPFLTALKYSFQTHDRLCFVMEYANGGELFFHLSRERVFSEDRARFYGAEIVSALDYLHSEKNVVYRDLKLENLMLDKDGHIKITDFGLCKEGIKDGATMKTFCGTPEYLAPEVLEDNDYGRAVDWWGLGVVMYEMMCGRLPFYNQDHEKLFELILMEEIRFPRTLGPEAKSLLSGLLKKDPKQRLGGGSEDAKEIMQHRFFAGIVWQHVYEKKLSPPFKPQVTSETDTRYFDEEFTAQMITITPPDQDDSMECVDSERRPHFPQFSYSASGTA

[6] = target: T2, Dual specificity tyrosine-phosphorylation-regulated kinase 3 (Homo sapiens, UniProt O43781); experiment: Inhibition of Dyrk3 (unknown origin) using Woodtide as substrate after 30 mins by P81 membrane assay in presence of [33P]-g-ATP
T2 sequence (O43781 whole entry): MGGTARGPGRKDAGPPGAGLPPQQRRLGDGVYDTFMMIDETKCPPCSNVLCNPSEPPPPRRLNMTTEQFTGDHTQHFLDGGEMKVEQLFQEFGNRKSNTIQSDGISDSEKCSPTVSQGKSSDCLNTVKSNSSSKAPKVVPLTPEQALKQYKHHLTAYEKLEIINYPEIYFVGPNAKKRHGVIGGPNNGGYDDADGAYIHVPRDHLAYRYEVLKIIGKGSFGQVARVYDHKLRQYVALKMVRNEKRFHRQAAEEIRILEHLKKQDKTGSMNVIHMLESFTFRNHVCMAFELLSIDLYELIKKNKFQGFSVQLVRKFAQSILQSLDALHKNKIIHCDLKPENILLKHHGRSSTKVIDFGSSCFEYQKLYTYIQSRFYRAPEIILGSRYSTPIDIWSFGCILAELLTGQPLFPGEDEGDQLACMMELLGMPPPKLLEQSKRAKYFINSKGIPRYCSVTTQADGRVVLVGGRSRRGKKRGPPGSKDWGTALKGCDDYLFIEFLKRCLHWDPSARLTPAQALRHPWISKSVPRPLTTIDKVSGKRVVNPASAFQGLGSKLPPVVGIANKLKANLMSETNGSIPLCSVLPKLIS

[7] = target: Aurora kinase B (Homo sapiens) (UniProt Q96GD4); experiment: Inhibition of Aurora B (unknown origin) at 0.5 uM relative to control
Sequence of Aurora kinase B (Homo sapiens) (Q96GD4 whole entry): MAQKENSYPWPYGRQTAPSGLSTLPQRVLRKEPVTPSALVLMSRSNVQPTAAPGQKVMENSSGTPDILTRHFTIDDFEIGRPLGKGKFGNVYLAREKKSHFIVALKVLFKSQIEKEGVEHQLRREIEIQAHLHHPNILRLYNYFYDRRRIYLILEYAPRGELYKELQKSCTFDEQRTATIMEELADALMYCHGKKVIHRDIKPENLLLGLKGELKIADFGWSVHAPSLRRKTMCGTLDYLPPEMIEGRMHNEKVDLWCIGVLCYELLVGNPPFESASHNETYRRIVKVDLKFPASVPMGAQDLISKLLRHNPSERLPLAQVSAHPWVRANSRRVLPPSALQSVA

## Nc1nccc(-c2cn(C(=O)N3CCOCC3)c3ccc(Br)cc23)n1
[1]
  IC50: 0.5 µM
[2]
  inhibition: 22.7%
[3]
  inhibition: 12.6%
[4]
  inhibition: 0%
[5]
  inhibition: 16.4%
[6]
  IC50: 2.2 µM
[7]
  inhibition: 0%
